Measured values reported in US10093629B2, “Heterocyclic compounds and their use as retinoid-related orphan receptor (ROR) gamma-T inhibitors” (Takeda Pharmaceutical Company Limited, priority 2014, dated 2018).

Assays:
RORγt [1] = target: T1, RORγt (Homo sapiens, UniProt P51449); assay: Jurkat reporter test (human IL-17 ROR response element luciferase, RORγt vector); type: cell-based; settings: test compound 3 μM; Jurkat cells; read-out: luminescence level inhibitory rate at test compound 3 μM
T1 sequence (P51449 1-497 isoform P51449-2): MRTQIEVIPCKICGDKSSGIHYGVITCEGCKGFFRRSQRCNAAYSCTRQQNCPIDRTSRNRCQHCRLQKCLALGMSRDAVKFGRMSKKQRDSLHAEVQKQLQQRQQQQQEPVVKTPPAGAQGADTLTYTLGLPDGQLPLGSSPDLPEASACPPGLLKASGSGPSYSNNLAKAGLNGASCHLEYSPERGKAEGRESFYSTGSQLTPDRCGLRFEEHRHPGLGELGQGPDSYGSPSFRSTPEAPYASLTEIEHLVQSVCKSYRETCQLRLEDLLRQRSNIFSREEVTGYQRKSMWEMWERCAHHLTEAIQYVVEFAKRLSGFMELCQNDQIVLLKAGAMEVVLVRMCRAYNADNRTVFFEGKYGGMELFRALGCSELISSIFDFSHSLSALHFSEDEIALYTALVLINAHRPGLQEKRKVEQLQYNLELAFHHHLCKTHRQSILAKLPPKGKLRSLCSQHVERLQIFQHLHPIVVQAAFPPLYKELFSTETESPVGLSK
Method: The Jurkat cells used for the reporter test were cultured in a culture medium (RPMI (Invitrogen), 10% FCS (AusGeneX), 100 U/mL penicillin, 100 μg/mL streptomycin). On the day of the test, 4×10^7 cells were recovered by a centrifugal operation (1000 rpm, 5 min.) and suspended in PBS (phosphate buffered saline) (Invitrogen). Thereafter, the cells were recovered again by a centrifugal operation, and suspended in 2 mL of R buffer (NEON transfection kit, Invitrogen). […] Gene transfer was performed by Electroporation apparatus (NEON, Invitrogen) under the conditions of pulse voltage 1350 V, interval 10 milliseconds, number of times 3. The cells after gene transfer were suspended in 40 mL of a reaction medium (RPMI, 10% Lipid reduced FCS (HyClone), 10 mM HEPES (pH 7.5), 100 U/mL penicillin, 100 μg/mL streptomycin, 5 μM lovastatin), and plated in a 96 well plate by 90 μL. A test compound diluted with the reaction medium was added by 10 μL, and the cells were cultured overnight in an incubator. Bright-Glo (Promega) was added by 100 μL, and the mixture was stirred at room temperature for 10 min, and the luminescence level was measured by Envision (PerkinElmer).

RORγt [2] = target: T1, RORγt; assay: Cofactor recruitment test (Alpha Screen, biotinylated SRC-1 peptide); type: biochemical; settings: read-out: signal value inhibitory rate at test compound 1 μM
Method: Cofactor Recruitment Test
Cofactor recruitment test was performed by Alpha Screen (Histidine Detection Kit, PerkinElmer) method. First, a test compound was diluted with an assay buffer (50 mM Tris-HCl (pH 7.5), 50 mM KCl, 1 mM DTT, 0.1% BSA) and added to a 384 well plate by 5 μL. […] The mixture was stood in a dark place for 1 hr, and the signal value was measured by Envision (PerkinElmer).

IL-17A gene expression = assay: Effect on IL-23-induced cytokine expression in mice; type: in vivo, mouse; settings: 10 mg/kg oral, 30 min before and 8 hr after IL-23; ear of Balb/c mice; versus the negative control group
Method: Effect on IL-23-Induced Cytokine Expression in Mice
A mouse IL-23 solution (500 ng/10 μL, prepared by Takeda Pharmaceutical Company Limited) or PBS (10 μL, negative control group) was administered intradermally in the ear of Balb/c mice (Charles River Japan, male, 7 weeks old). Twenty-four hr after administration, the ear was resected under isoflurane anesthesia. The test compound was suspended in 0.5% methylcellulose and administered orally 30 min before and 8 hr after IL-23 administration.
RNA extraction from the ear tissue and quantitative PCR were performed as follows. Specifically, ear tissue 5 mm in diameter was punched from an area of the resected ear centering on the IL-23 injection site, and the tissue was immersed in RNAlater (QIAGEN) for at least 18 hr. The RNAlater-treated ear tissue was homogenized in 350 μL of RLT buffer (RNeasy mini kit, QIAGEN) and treated (55° C., 10 min) with Proteinase K (QIAGEN). Total RNA was then extracted according to the RNeasy mini kit protocol. The RNA thus obtained was then reverse transcribed into cDNA using the High-Capacity RNA-to-cDNA kit (Applied Biosystems), and the amount of each gene expressions was measured by real-time PCR (Viia7™, Applied Biosystems). The PCR buffer used was TaqMan Fast Advanced Master Mix (Applied Biosystems), and TaqMan Gene Expression Assays (Applied Biosystems) Mm00439618_m1 (IL-17A) and 4352341E (β-actin) were used for each gene detection. The IL-17A gene expression level was normalized to the β-actin gene expression level, and the percent inhibition of IL-17A gene expression with the test compound was then calculated.
The results (percent inhibition of IL-17A gene expression with oral administration of the test compound) measured by the above-mentioned method are shown in Table 9.

[3] = tested on: IL-17 production in human blood; assay: Effect on IL-17 production in human blood; type: cell-based; settings: 72 h; 10 μM test compound; human peripheral blood, IL-23 and Dynabeads stimulation, 3 days; read-out: percent inhibition at 10 μM (IL-17 production)
Method: Effect on IL-17 Production in Human Blood
The inhibitory effect of the test compound on IL-17 production in human blood was evaluated as follows. First, 150 μL of peripheral blood collected from healthy individuals using heparinized vacuum blood collection tubes was dispensed into each well of a 96-well plate (Corning), and 45 μL of RPMI 1640 medium (Gibco) containing 10% fetal bovine serum (FBS, Hyclone) and 30 μL of the test compound diluted with the medium were added to each well. The plate was then cultured for 30 min at 37° C. The cells were subsequently stimulated by adding 30 μL of 100 ng/mL human IL-23 (R&D) and 45 μL of Dynabeads Human (Invitrogen) to each well and culturing the plate for 3 days at 37° C. In wells without stimulation, 75 μL of RPMI 1640 medium containing 10% FBS was added instead of the IL-23 and Dynabeads solution. After culturing for 3 days, the culture supernatant was collected, and the amount of IL-17 in the supernatant was measured using an IL-17 ELISA kit (R&D).
The results (percent inhibition of IL-17 production with 10 μM of the test compound) measured by the above-mentioned method are shown in Table 8.

RORγt [4] = target: T1, RORγt; assay: RORγt binding test using fluorescent-labeled synthetic ligand (TR-FRET); settings: read-out: binding inhibitory rate of fluorescent-labeled synthetic ligand to RORγt at test compound 1 μM
Method: RORγt Binding Test using Fluorescent-Labeled Synthetic Ligand
The binding activity of the test compound to RORγt was measured by a time resolved fluorescence resonance energy transfer method (TR-FRET) utilizing histidine-tagged RORγt, fluorescent-labeled synthetic ligand and terbium-labeled anti-histidine tag antibody (Invitrogen). First, a test compound diluted with an assay buffer (20 mM Tris-HCl (pH 7.5), 100 mM NaCl, 1 mM DTT, 0.1% BSA) was added to a 384 well plate by 3 μL. Then, RORγt diluted with an assay buffer to 240 nM was added by 3 μL, after which fluorescent-labeled synthetic ligand diluted with the assay buffer to 12 μM was added by 3 μL, and the mixture was stood at room temperature for 20 min. Thereafter, a terbium-labeled anti-histidine tag antibody diluted with the assay buffer to 8 nM was added by 3 μL. The mixture was stood at room temperature for 20 min, and fluorescence intensity (excitation wavelength 320 nm, fluorescence wavelength 520 nm, delay time 100 microseconds) was measured by Envision (PerkinElmer).

| Structure (SMILES) | inhibition at 3 µM (RORγt [1]) [%] | inhibition at 1 µM (RORγt [2]) [%] | percent inhibition of IL-17A gene expression (IL-17A gene expression) [%] | inhibition at 10 µM [3] [%] | inhibition at 1 µM (RORγt [4]) [%] |
| --- | --- | --- | --- | --- | --- |
| COc1ccc2c(c1)CCN(C(=O)C1CC(CC(=O)O)C1)[C@H]2C(=O)Nc1cc(F)c([Si](C)(C)C)c(F)c1 (stereo partly drawn) [Example 4, (3-(((1R)-1-((3,5-difluoro-4-(trimethylsilyl)phenyl)carbamoyl)-6-methoxy-3,4-dihydroisoquinolin-2(1H)-yl)carbonyl)cyclobutyl)acetic acid] | 100 | 94 | 86 | 88.3 | 102 |
| COc1ccc2c(c1)CCN(C(=O)[C@H]1C[C@@H](C(=O)O)C1)[C@H]2C(=O)Nc1cc(F)c([Si](C)(C)C)c(F)c1 [Example 5, cis-3-(((1R)-1-((3,5-difluoro-4-(trimethylsilyl)phenyl)carbamoyl)-6-methoxy-3,4-dihydroisoquinolin-2(1H)-yl)carbonyl)cyclobutanecarboxylic acid] | 100 | 93 | 57 | 88.6 | 102 |
| CCOc1ccc2c(c1)CCN(C(=O)[C@H]1C[C@@H](C(=O)O)C1)[C@H]2C(=O)Nc1cc(F)c([Si](C)(C)C)c(F)c1 [Example 8, cis-3-(((1R)-1-((3,5-difluoro-4-(trimethylsilyl)phenyl)carbamoyl)-6-ethoxy-3,4-dihydroisoquinolin-2(1H)-yl)carbonyl)cyclobutanecarboxylic acid] | 100 | 90 | 72 | 82.9 | 102 |
| CCOc1ccc2c(c1)CCN(C(=O)[C@H]1C[C@H](C(=O)O)C1)[C@H]2C(=O)Nc1cc(F)c([Si](C)(C)C)c(F)c1 [Example 9, trans-3-(((1R)-1-((3,5-difluoro-4-(trimethylsilyl)phenyl)carbamoyl)-6-ethoxy-3,4-dihydroisoquinolin-2(1H)-yl)carbonyl)cyclobutanecarboxylic acid] | 99 | 88 | 57 | 93.5 | 102 |
| COc1ccc2c(n1)CCN(C(=O)[C@H]1C[C@@H]1CC(=O)O)[C@H]2C(=O)Nc1cc(F)c([Si](C)(C)C)c(F)c1 [Example 13, ((1R,2S)-2-(((5R)-5-((3,5-difluoro-4-(trimethylsilyl)phenyl)carbamoyl)-2-methoxy-7,8-dihydro-1,6-naphthyridin-6(5H)-yl)carbonyl)cyclopropyl)acetic acid] | 104 | 83 | 91 |  | 102 |
| COc1ccc2c(c1)CCN(C(=O)[C@H]1C[C@@H](CC(=O)O)C1)[C@H]2C(=O)Nc1cc(F)c([Si](C)(C)C)c(F)c1 [Example 25, (cis-3-(((1R)-1-((3,5-difluoro-4-(trimethylsilyl)phenyl)carbamoyl)-6-methoxy-3,4-dihydroisoquinolin-2(1H)-yl)carbonyl)cyclobutyl)acetic acid] | 101 | 93 | 92 |  | 102 |
| COc1ccc2c(c1)CCN(C(=O)[C@H]1C[C@@H](C(=O)O)C1)[C@H]2C(=O)Nc1ccc([Si](C)(C)C)c(F)c1 [Example 32, cis-3-(((1R)-1-((3-fluoro-4-(trimethylsilyl)phenyl)carbamoyl)-6-methoxy-3,4-dihydroisoquinolin-2(1H)-yl)carbonyl)cyclobutanecarboxylic acid] | 101 | 91 | 83 |  | 102 |
